The results in this text go back to patent publication US20230338463A1, “ICD PEPTIDE AND USE THEREOF FOR HAVING CYTOTOXIC ACTIVITY ON CANCER CELLS” (NATIONAL TSING HUA UNIVERSITY, priority 2022, published 2023).

Non-standard residues stand in square brackets, D forms with d. Residues, ends and D or L forms follow the SMILES beside them. 2Nal = N[C@@H](Cc1ccc2ccccc2c1)C(=O)O

Series [1] has as its system MN-11 cells (fibrosarcoma). Description: MN-11 fibrosarcoma tumor regression, intratumoral injection. Format: in vivo. The method, then: Female C57BL/6 wild-type mice (4–5 weeks old) were obtained from the BioLASCO Taiwan Co., Ltd (Taiwan). All mice were housed in a specific pathogen-free and controlled environment. During the experiments, female mice, weighing 18–24 g each, were kept in groups of 4 to 6 animals per cage under climate-controlled conditions, with 12 h light/dark cycles and an ambient temperature. The mice were housed in an enriched individually ventilated cage system with free access to standard rodent chow and water ad libitum. The animals were anesthetized during the experimental procedures with 2.5% isoflurane gas. The animals were monitored daily and large-tumor-bearing mice were euthanized with isoflurane. All the procedures were conducted according to the regulations of Laboratory Animal Care and Use Committee or Group Setup and Management and the law of Animal Protection. All animal experiments were approved by National Tsing Hua University (approval ID: 110016), and the protocol was approved by Institutional Animal Care and Use Committee.
Pre-cultured MN-11 cells were harvested in a DMEM medium and inoculated total of 5×10^5 cells (mixed equal volume of matrigel) into the right flank of the abdomen in C57BL/6 mice with subcutaneous injection (6 mice/group). Palpable tumors (50-75 mm^3) were intratumorally injected (i.t.) with Nal-P-113 (1 mg/50 µl saline per mouse) for 3 consecutive days. Negative control (tumor only) mice received saline only (sterile H2O with 0.9% NaCl). Tumor size was measured every 2 days using a caliper, and the volume of tumors was calculated using the following formula: Tumor size (mm^3) = 0.5× (width^2×length). Animals were terminated when the tumor exceeded 2000 mm^3. The survival rates of tumor-bearing mice were observed and recorded continuously until all animals were dead. Additionally, the following were implemented as humane endpoints: signs of unacceptable pain, infection, severe ulceration, or surgical complications.
To investigate the therapeutic potential of Nal-P-113 in vivo, MN-11 cells were subcutaneously implanted into C57BL/6 mice. After eight days post-implantation, tumor volumes reached 50-75 mm^3. Then all animals were injected intratumorally (i.t.) with 50 µl of PBS (Negative control; n=5) or […] Nal-P-113 (n=11). […] At the end of the experiments (35 days), 10 out of 11 animals were survived in the treatment group. […] Nal-P-113 treatment appeared to be nontoxic since no there were effects on the body weight and intake of the animals at the end of the experiment (FIG. 9D and FIG. 9E).

Another series concerns PC 9 cells. Put plainly: Extracellular HMGB1 Western blot, PC 9. The class given is cell-based, human. The method, then:
HMGB 1 is a chromatin-binding protein and plays an important role as an indicator in the peptide induced immunogenic cell death. In one embodiment, the PC 9 cells were seeded at the density of 2 × 10^4 cells/well under the culture condition in 6-well plate as mentioned earlier in the cell viability determination and left to adhere for 48 hrs. The cells were treated with 56.22 µM of SEQ ID NO:3, 128.38 µM of SEQ ID NO:4 and 142.9 µM of SEQ ID NO: 5 peptides which is the two-fold IC50 concentration for 1 hour (FIG. 4A), 2 hour (FIG. 4B), 4 hour (FIG. 4C) under the incubation condition of humidified 5% CO2 and 37° C. The ICD peptides used were dissolved thoroughly in the serum-free medium (RPMI 1640) before treating the cells.
After the treatment of ICD peptides, the supernatant and lysate of the cells were collected separately for the further experiment. The supernatant was centrifuged at the speed of 1,500 RCF while the cell lysate was undergoing the centrifugation at 14,000 rpm for 5 minutes under the temperature of 4° C. Then, the pellet collected from the supernatant and supernatant of centrifuged cell lysate were discarded. The harvested pellet of cell lysate was washed twice using 200 µL PBS each time preliminarily the sonication of the pellet using bio-disruptor. The disrupted pellet was centrifuged again for 10 minutes under 14,000 rpm and 4° C.
The concentration of the samples was quantified using the commercially available protein quantification assay such as Bradford assay to make sure the amount of the protein was equally loaded in each of the well for SDS-PAGE gel.
The transfer process from polyacrylamide gel to PVDF membrane was performing for 75 minutes under 30 V and 400 mA as well as semi-dry condition. PBST buffer was used to wash the PVDF membrane three times after the transfer process.
The anti-HMGB1 antibody (Abcam, Cambridge, UK, ab18256) will be the primary antibody and incubated overnight at 4° C. in the dilution ratio of 1: 1000. […]

The next series has as its system MN-11 cell line. Format: cell-based, murine. The note with it: 2 h. How it is done: Besides, evaluation of the killing kinetics of Nal-P-113, Bip-P-113 and Dip-P-113 for MN-11 was determined by MTT assay. Two-fold half 1inhibitory concentration (2 × IC50) was chosen for the experiments and the results were recorded at selected time points (30 mins, 1 hour, 2 hours and 4 hours). […] In 2 hours, the cell survival rate was near 50%.

The test system of series [2] is MN-11 cells (murine fibrosarcoma). The class given is cell-based. The text has this: Medium with PBS solution was used as control group.
Besides, MTT assay was used to test the cell viability of the murine fibrosarcoma MN-11 cell line. Among the peptides, Dip-P-113 had the lowest cytotoxicity against MN-11 cells (FIG. 1F).

The subject of a further series is MN-11 cells. Put plainly: PI/Hoechst 33342 staining, plasma membrane integrity. The class given is cell-based, murine. The note with it: MN-11, 2× IC50, 2 hrs, data not shown. The method, then: To examine the membrane-lytic activities of peptides, the PI/Hoechst 33342 staining was performed in this embodiment. The PI dye was used to stain damaged/dead cells, and Hoechst 33342 was used to specifically stain the nuclei of living cells. MN-11 cells were seeded at 50,000 cells/well in a RPMI medium and allowed to adhere for 24 hours. Then the cells were replaced with serum-free RPMI medium, and then treated with 2× IC50 peptides at 37° C. for 2 hrs. DMEM medium without peptide was used as negative control. The PI and Hoechst 33342 were added at a final concentration of 1 µg/ml for 20 mins. The cells were observed using the inverted fluorescent microscope Zeiss equipped with a 40× oil objective lens (Carl Zeiss, Germany). The experiments were repeated three times independently
To examine the membrane-lytic activities of Nal-P-113, Bip-P-113, and Dip-P-113, the DNA binding fluorescent dye Propidium iodide (PI) was used to stain damaged/dead cells, and Hoechst 33342 was used to specifically stain the nuclei of living cells.

Regarding `CC(=O)N[C@@H](C)C(=O)N[C@@H](CCCCN)C(=O)N[C@@H](CCCNC(=N)N)C(=O)N[C@@H](Cc1ccc2ccccc2c1)C(=O)N[C@@H](Cc1ccc2ccccc2c1)C(=O)NCC(=O)N[C@@H](Cc1ccc(O)cc1)C(=O)N[C@@H](CCCCN)C(=O)N[C@@H](CCCNC(=N)N)C(=O)N[C@@H](CCCCN)C(=O)N[C@@H](Cc1ccccc1)C(=O)N[C@@H](Cc1ccc2ccccc2c1)C(N)=O` [SEQ ID NO:3, Ac-AKR Nal Nal GYKRKFNal-NH2] (Ac-AKR[2Nal][2Nal]GYKRKF[2Nal]-NH2), in series [1] (C57BL/6 mice, at the end of the experiment), the “toxicity (body weight and intake)” value was “nontoxic”. Besides, the animals survived in series [1] (end of the experiments (35 days), i.t. Nal-P-113 for 3 consecutive days, n=11) is given as 10 out of 11. In addition, the “complete regression of the tumor” value in series [1] (treatment group n=11, i.t.) worked out at 5 animals. For the same compound, in series [1] (treatment group n=11, i.t.), the tumor recurrence is listed as 6 animals. Besides, the HMGB1 in supernatant entry in the series with PC 9 cells (PC 9, 2 × IC50, 1 hour) was “nothing is observed”; in the series on PC 9 cells (PC 9, 2 × IC50, 2 hours), “can be detected”; in the series with PC 9 cells (PC 9, 2 × IC50, 4 hours), “obviously be seen”. The compound also yielded a cell survival rate in the series with MN-11 cell line of about 50%. The compound also registered an IC50 in series [2] of 11.1 ± 1.37 µM. Besides, the “plasma membrane integrity (PI entering cells)” value in the series on MN-11 cells is recorded as “can cause damage to the plasma membrane integrity”.

Broadly, the IC50 is the concentration that inhibits the measured activity by half. High values mean weaker potency, low ones greater potency.
